Results published in the supplement of paper PMC10307832.

Tests used:
Assay in all cases: relative viability (nuclei count vs DMSO), 5 days (fraction); higher = more cells survive
Dactolisib + Navitoclax = compound: Cn1c(=O)n(-c2ccc(C(C)(C)C#N)cc2)c2c3cc(-c4cnc5ccccc5c4)ccc3ncc21 [Dactolisib] + CC1(C)CCC(c2ccc(Cl)cc2)=C(CN2CCN(c3ccc(C(=O)NS(=O)(=O)c4ccc(N[C@H](CCN5CCOCC5)CSc5ccccc5)c(S(=O)(=O)C(F)(F)F)c4)cc3)CC2)C1 [Navitoclax] (partner 0.5 µM)
Procedure, shortened: (§1)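 After 5 days of treatment, lung cancer cells in 1536-well plates were fixed and stained in a single step (final 0.05% Triton X-100, 1% formaldehyde, 1 ug/ml Hoechst) and their nuclei counted on 4× images. Treatment had been applied by pin tool the day after seeding as one drug alone or as a fixed anchor-drug dose with five library-drug doses (not always all listed) in √10 steps. Relative viability is the nuclei count of treated wells divided by that of vehicle wells, and values are medians of duplicate plates.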

AZ505 + OSI-027 = compound: C1CCC(CC1)N(CCNCCC2=C3C(=C(C=C2)O)NC(=O)CO3)C(=O)CCNCCC4=CC(=C(C=C4)Cl)Cl [AZ505] + COc1cccc2cc(-c3nc([C@H]4CC[C@H](C(=O)O)CC4)n4ncnc(N)c34)[nH]c12 [OSI-027] (partner 0.5 µM)
Procedure, shortened: as §1

AZ505 + Vorinostat = compound: C1CCC(CC1)N(CCNCCC2=C3C(=C(C=C2)O)NC(=O)CO3)C(=O)CCNCCC4=CC(=C(C=C4)Cl)Cl [AZ505] + O=C(CCCCCCC(=O)Nc1ccccc1)NO [Vorinostat] (partner 1 µM)
Procedure, shortened: as §1

Dactolisib + Linsitinib = compound: Cn1c(=O)n(-c2ccc(C(C)(C)C#N)cc2)c2c3cc(-c4cnc5ccccc5c4)ccc3ncc21 [Dactolisib] + C[C@]1(O)C[C@@H](c2nc(-c3ccc4ccc(-c5ccccc5)nc4c3)c3c(N)nccn32)C1 [Linsitinib] (partner 1 µM)
Procedure, shortened: as §1

Cell Line	relative viability (Dactolisib + Navitoclax; first compound 0.002 µM)	relative viability (Dactolisib + Navitoclax; first compound 0.006325 µM)	relative viability (Dactolisib + Navitoclax; first compound 0.02 µM)	relative viability (Dactolisib + Navitoclax; first compound 0.06325 µM)	relative viability (Dactolisib + Navitoclax; first compound 0.2 µM)	relative viability (AZ505 + OSI-027; first compound 0.08 µM)	relative viability (AZ505 + OSI-027; first compound 0.253 µM)	relative viability (AZ505 + OSI-027; first compound 0.8 µM)	relative viability (AZ505 + OSI-027; first compound 2.53 µM)	relative viability (AZ505 + OSI-027; first compound 8 µM)	relative viability (AZ505 + Vorinostat; first compound 0.08 µM)	relative viability (AZ505 + Vorinostat; first compound 0.253 µM)	relative viability (AZ505 + Vorinostat; first compound 0.8 µM)	relative viability (AZ505 + Vorinostat; first compound 2.53 µM)	relative viability (AZ505 + Vorinostat; first compound 8 µM)	relative viability (Dactolisib + Linsitinib; first compound 0.002 µM)	relative viability (Dactolisib + Linsitinib; first compound 0.006325 µM)	relative viability (Dactolisib + Linsitinib; first compound 0.02 µM)	relative viability (Dactolisib + Linsitinib; first compound 0.06325 µM)	relative viability (Dactolisib + Linsitinib; first compound 0.2 µM)
ChaGo-K-1	0.92	1.03	0.975	1.13	0.765	0.53	0.448	0.593	0.699	0.537	0.695	0.758	0.816	0.682	0.775	–	–	–	–	–
EBC-1	0.408	0.417	0.212	0.173	0.145	–	–	–	–	–	–	–	–	–	–	0.974	0.756	0.863	0.202	0.177
EKVX	0.961	0.98	0.815	0.782	0.346	0.674	0.714	0.684	0.645	0.717	0.66	0.766	0.687	0.548	0.899	0.896	0.908	0.962	0.682	0.327
EMC-BAC-2	1.19	1.13	1.11	0.867	0.642	0.358	0.38	0.392	0.385	0.372	0.486	–	0.512	0.547	0.722	0.872	0.806	0.798	0.591	0.475
EPLC-272H	1.31	1.01	0.937	0.592	0.365	–	0.251	0.22	0.263	0.283	0.443	0.516	0.413	0.52	0.398	1.16	1.09	0.969	0.575	0.491
H3255	0.724	0.488	0.426	0.458	0.176	0.548	0.675	0.617	0.624	0.559	–	0.799	0.796	0.84	0.923	1.13	0.919	0.967	0.626	0.416
HARA	1.2	1.13	1.18	1.13	0.404	0.269	0.234	0.352	0.345	0.365	0.547	0.522	0.457	0.471	0.541	1	0.884	0.842	0.573	0.211
HCC-15	0.767	0.646	0.673	0.475	0.322	0.612	0.624	0.596	0.594	0.726	0.844	0.817	0.803	0.854	0.824	0.976	0.864	0.873	0.441	0.367
HCC-44	1.06	0.982	1	0.266	0.3	0.468	0.594	0.534	0.639	0.486	1.09	1.09	1.06	1.23	1.14	0.707	0.741	0.431	0.315	0.265
